Legend:
[1] = test system: hypertonic saline-induced IOP increase in rabbits; assay: IOP lowering activity in hypertonic saline-induced IOP increase in rabbits; format: in vivo, New Zealand White rabbits
From the text: Intraocular pressure (IOP) lowering activity in hypertonic saline-induced IOP increase in rabbits.
This animal model of elevated IOP was used for assessing the intraocular pressure (IOP) lowering activities of some compounds of the invention, timolol, dorzolamide and 5-isosorbide mononitrate.
• compounds (6), (20) and (25) • timolol and dorzolamide that are drugs commonly used for the treatment of glaucoma and ocular hypertension. • Isosorbide mononitrate (5-ISMN) that is a commonly used nitric oxide donor drug.
Timolol, dorzolamide and 5-ISMN were tested as reference compounds. Adults male New Zealand White rabbits weighting 1.8-2.0 Kg were used in the experiments.
IOP was measured using a Tono-Pen XL prior to hypertonic saline injection (basal) and at 30, 60, 120 and 240 min thereafter. Vehicle (5% cremophor-EL; 0.3% DMSO; 0.2 mg/ml BAK in PBS pH 6.0) and all the tested compounds dissolved in the vehicle were instilled as eye drops immediately after hypertonic saline injection. Eyes were randomly assigned to different treatment groups. Vehicle and the tested compounds were directly instilled into the conjunctiva pocket at the desired doses. One drop of 0.4% oxybuprocaine hydrochloride (Novesine, Sandoz) was instilled in each eye immediately before each set of pressure measurements.
Results are reported in Table 6, the ocular hypotensive activities of the tested compounds are expressed as IOP change at 60 and 120 minutes after topical administration versus vehicle and versus the basal IOP.

[2] = test system: lipidic peroxidation of membrane lipids in rat hepatocytes (hepatic microsomal membranes); assay: In vitro antioxidant activity (TBARS test); format: biochemical; conditions: Method A (ADP-FeCl3 and NADPH); inhibition of TBARS production after 30 min; read-out: Antioxidant activity IC50 μM (CL 95%)
Procedure: The antioxidant properties of compounds (6) (disclosed in example 1) and compound (23) (disclosed in example 19) and reference antioxidant compounds were assessed after NADPH-induced lipidic peroxidation of membrane lipids in rat hepatocytes using the detection of 2-thiobarbituric acid reactive substances (TBARS) by visible spectroscopy.
Hepatic microsomal membranes from male Wistar rats (200-250 g) were prepared by differential centrifugation (8000 g, 20 min; 120000 g, 1 h) in a HEPES/sucrose buffer (10 mM, 250 mM, pH 7.4) and stored at −80° C. Incubation was performed at 37° C. in a Tris-HCl/KCl (100 mM/150 mM, pH 7.4) containing microsomal membranes (2 mg prot/mL), sodium ascorbate (100 μM), and DMSO solutions of the tested compounds. Lipid peroxidation was initiated by adding ADP-FeCl3 and NADPH (Method A) or 2.5 μM FeSO4 (Method B) (as described by Boschi D. et al., J. Med. Chem. 2006, 49:2886-2897). Aliquots were taken from the incubation mixture at 5, 15, and 30 min and treated with trichloroacetic acid (TCA) 10% w/v. Lipid peroxidation was assessed by spectrophotometric (543 nm) determination of the TBARS consisting mainly of malondialdehyde (MDA). TBARS concentrations (expressed in nmol/mg protein) were obtained by interpolation with a MDA standard curve. The antioxidant activity of tested compounds was evaluated as the percent inhibition of TBARS production with respect to control samples, using the values obtained after 30 min of incubation. IC50 values were calculated by nonlinear regression analysis.

COC1=C(OC)C(=O)C(CCCCCCCCCCO[N+](=O)[O-])=C(C)C1=O [Compound (6), 10-(4,5-dimethoxy-2-methyl-3,6-dioxocyclohexa-1,4-dienyl)decyl nitrate]
ΔΔ (mmHg), IOP change versus vehicle and versus basal IOP ([1]; 60 min after topical administration): −7.4 ± 2.7 mmHg | ΔΔ (mmHg), IOP change versus vehicle and versus basal IOP ([1]; 120 min after topical administration): −9.8 ± 2.0 mmHg | IC50 [2]: 2 µM
